Measurements published in patent US6083985A, “Medicinal composition” (Banyu Pharmaceutical Co., Ltd., priority 1995, dated 2000).
Like-named read-outs stand apart in the source and are kept apart here.

Key:
[1] = test system: farnesylation of Ras protein in NIH3T3 cells; assay: Inhibitory effect on farnesylation of Ras protein in NIH3T3 cells into which an activated ras gene was introduced (SDS-PAGE, anti-Ras antibody, densitometry); type: cell-based; conditions: for inhibitory activity on farnesylation of Ras proteins in the presence of L-654,969: in the presence of L-654,969 (0.15 μM or 5 μM)
Procedure: Inhibitory effect on farnesylation of Ras protein in NIH3T3 cells into which an activated ras gene was introduced, was measured by using the compounds prepared in Preparation Examples 3 and 5 as PFT inhibitors and L-654,969 (an active metabolite of simvastatin) as a hydroxymethylglutaryl CoA reductase inhibitor.
The cells were cultured for 24 hours, peeled off the plates and dissolved in accordance with the method disclosed in J. Biol. Chem., vol. 268, 18415 (1993). The cell solutions were centrifuged at 12000 g for 5 minutes, and the supernatants were used as cell extracts. The cell extracts were subjected to SDS polyacrylamide gel electrophoresis to separate the farnesylated Ras protein and the unfarnesylated Ras protein. […] After the anti-primary antibody, a peroxidaze-conjugated antibody (a secondary antibody) was allowed to react, the Ras protein was detected by mean of a chemoluminescence amplification kit. The proportion of the unfarnesylated Ras protein was determined by using a densitometer and defined as the inhibitory activity.

BMJ1 cells = assay: Inhibitory activity on proliferation of transformed BMJ1 cells (SRB method); type: cell-based, mouse; conditions: for IC50: Mus musculus, transformed BMJ1 cells; for 50% cell proliferation inhibitory activity in the presence of L-654,969: presence of 0.8 μM of L-654,969
Procedure: The BMJ1 cells which were obtained by introducing a hormone-inducible activated ras gene into BALB3T3 cells, a mouse-derived established cell line, were transformed by adding dexamethasone to the culture so as to produce an activated Ras protein. To assess the inhibitory effects of the PFT inhibitors on cell proliferation, the 50% proliferation inhibitory concentration for each compound was calculated by adding each compound to a transformed BMJ1 cell culture at various concentrations, and counting the number of cells after incubation. The cell numbers were counted in accordance with the SRB method disclosed in Proc. Am. Assoc. Cancer Res., vol.

[2] = PFT inhibitor 1 μM, L-654,969 5 μM, 24 hours
[3] = PFT inhibitor 3 μM, L-654,969 0.15 μM, 24 hours
[4] = PFT inhibitor 3 μM, L-654,969 5 μM, 24 hours
[5] = In the absence of L-654,969, read-out: 50% Proliferation inhibitory concentration (IC50 μM) In the absence of L-654,969
[6] = In the presence of 0.8 μM of L-654,969, read-out: 50% Proliferation inhibitory concentration (IC50 μM) In the presence of 0.8 μM of L-654,969

SMILES	inhibition at 10 µM ([1]; Mus musculus, NIH3T3, PFT inhibitor 10 μM, L-654,969: None, 24 hours, read-out: Inhibitory rate (%) on farnesylation of the Ras proteins) [%]	Inhibitory rate (%) on farnesylation of the Ras proteins [1, 2] [%]	Inhibitory rate (%) on farnesylation of the Ras proteins [1, 3] [%]	Inhibitory rate (%) on farnesylation of the Ras proteins [1, 4] [%]	Inhibitory rate (%) on farnesylation of the Ras proteins ([1]; PFT inhibitor 10 μM, L-654,969 0.15 μM, 24 hours) [%]	Inhibitory rate (%) on farnesylation of the Ras proteins ([1]; PFT inhibitor 10 μM, L-654,969 5 μM, 24 hours) [%]	inhibitory activity on farnesylation of Ras proteins in the presence of L-654,969 [1]	IC50 (BMJ1 cells; [5]) [µM]	IC50 (BMJ1 cells; [6]) [µM]	50% cell proliferation inhibitory activity in the presence of L-654,969 (BMJ1 cells)	inhibition of farnesylation of the Ras proteins by L-654,969 by itself ([1]; 0.15 μM or 5 μM, by itself)	inhibition of cell proliferation by L-654,969 alone (BMJ1 cells; 0.8 μM, alone)	inhibition at 3 µM ([1]; Mus musculus, NIH3T3, PFT inhibitor 3 μM, L-654,969: None, 24 hours, read-out: Inhibitory rate (%) on farnesylation of the Ras proteins) [%]	Inhibitory rate (%) on farnesylation of the Ras proteins ([1]; PFT inhibitor 0.3 μM, L-654,969 5 μM, 24 hours) [%]	Inhibitory rate (%) on farnesylation of the Ras proteins ([1]; PFT inhibitor 1 μM, L-654,969 0.15 μM, 24 hours) [%]
C[C@H]([C@H](C/C=C/c1nc2ccccc2o1)c1ccc2c(c1)OCO2)N(Cc1ccc2ccccc2c1)C(=O)CC(CC(=O)O)(C(=O)O)C(=O)O (racemic) [Preparation Example 3, 3-[N-{(1RS,2RS,4E)-5-(2-benzoxazolyl)-1-methyl-2-(3,4-methylenedioxyphenyl)-4-pentenyl}-N-(2-naphthylmethyl)carbamoyl]-1,2,2-propanetricarboxylic acid]	32	55	27	88	67	90	increased synergically and concentration-dependently	130	11	increased synergecally and concentration-dependently	–	–	–	–	–
C[C@H]([C@H](C/C=C/c1nc2ccccc2o1)c1ccc2c(c1)OCO2)N(Cc1ccc2ccccc2c1)C(=O)[C@H](O)[C@@H](CC(=O)[O-])C(=O)[O-].[Na+].[Na+] (racemic) [Preparation Example 4, disodium (3RS,4RS)-4-[N-{(1RS,2RS,4E)-5-(2-benzoxazolyl)-1-methyl-2-(3,4-methylenedioxyphenyl)-4-pentenyl}-N-(2-naphthylmethyl)carbamoyl]-3-carboxylato-4-hydroxybutanoate]	–	–	–	–	–	–	–	105	6.5	increased synergecally and concentration-dependently	–	–	–	–	–
CCC(C)(C)C(=O)O[C@H]1C[C@@H](C)C=C2C=C[C@H](C)[C@H](CC[C@@H](O)C[C@@H](O)CC(=O)O)[C@H]21 [L-654,969, reference compound]	–	–	–	–	–	–	–	–	–	–	does not inhibit farnesylation of the Ras proteins	does not inhibit cell proliferation alone	–	–	–
C[C@H]([C@H](C/C=C/c1nc2ccccc2o1)c1ccc2c(c1)OCO2)N(Cc1ccc2ccccc2c1)C(=O)C(O)=C(CC(=O)O)C(=O)OC(C)(C)C [Preparation Example 5, 4-[N-{(1R,2R,4E)-5-(2-benzoxazolyl)-1-methyl-2-(3,4-methylenedioxyphenyl)-4-pentenyl}-N-(2-naphthylmethyl)carbamoyl]-3-tert-butoxycarbonyl-4-hydroxy-3-butenoic acid]	–	86	72	95	–	–	increased synergically and concentration-dependently	3.1	0.93	increased synergecally and concentration-dependently	–	–	32	43	18
